Experimental findings from patent publication US12084458B2, “Substituted pyridines, pyridazines, and pyrimidines as TYK2 inhibitors” (Sudo Biosciences Limited, priority 2021, dated 2024) are described below.

Common to all, as to type: cell-based
In assay [1] the test system is HEK-Blue IL-23 cells (IL-23-stimulated STAT3 SEAP reporter; TYK2 JH2). Description: HEK-Blue IL-23 SEAP reporter assay for profiling TYK2 pseudokinase (JH2) inhibition. The settings on record: 10 ng/mL human recombinant IL-23, SEAP reporter, read-out: IL23 (TYK2 inhibitory activity, IC50). On the procedure:
(§1) Example B-1: HEK-Blue™ IL-23 and IFNα/β Reporter Assays for Profiling TYK2 Pseudokinase (JH2) Inhibition
(§2) HEK-Blue™ IL-23 and IFNα/β cells with a stably-integrated cytokine receptor and STAT3 or STAT1 express STAT-inducible secreted embryonic alkaline phosphatase (SEAP) reporter gene upon cytokine stimulation. These cells are plated in DMEM (Gibco) containing 10% heat-inactivated FBS (Gibco) and 100 U/mL PenStrep (Gibco) at 37° C. under 5% CO2 conditions for 20-22 hours. The cells are then pretreated with serially diluted test compounds for 60 min prior to stimulation with either 10 ng/mL human recombinant IL-23 (Miltenyl Biotech) or 1 ng/mL human recombinant IFNα (InvivoGen) for 22-24 hours for IL-23 or 16-18 h for IFNα. SEAP induction is measured using the QUANTI Blue™ Solution (InvivoGen) according to the manufacturer's instructions.
(Reporter assays use an easily measured gene product as a stand-in for the process of interest.)

The test system of assay [2] is HEK-Blue IFNα/β cells (IFNα-stimulated STAT1 SEAP reporter; TYK2 JH2). Put plainly: HEK-Blue IFNα/β SEAP reporter assay for profiling TYK2 pseudokinase (JH2) inhibition. As to conditions: Homo sapiens, HEK-Blue, 1 ng/mL human recombinant IFNα, read-out: IFNα (TYK2 inhibitory activity, IC50). The protocol: as §1, §2
The subject of assay [3] is HEK-Blue IL-2 reporter cells (IL-2-stimulated STAT5 SEAP reporter). Description: HEK-Blue IL-2 SEAP reporter assay for determining selectivity. As to conditions: 4 ng/mL human recombinant IL-2. On the procedure: (§3) Example B-3: HEK-Blue™ IL-2 and IFNγ Reporter Assays for Determining Selectivity
(§4) HEK-Blue™ IL-2 and IFNγ reporter cells with a stably-integrated cytokine receptor and STAT5 or STAT1 express STAT-inducible secreted embryonic alkaline phosphatase (SEAP) reporter gene upon cytokine stimulation. These cells were plated in DMEM (Gibco) containing 10% heat-inactivated FBS (Gibco) and 100 U/mL PenStrep (Gibco) at 37° C. under 5% CO2 conditions for 20-22 hours. The cells were then pretreated with serially diluted test compounds for 60 min prior to stimulation with either 4 ng/mL human recombinant IL-2 (Miltenyl Biotech) or 50 ng/mL human recombinant IFNγ (InvivoGen) for 24 hours. SEAP induction was measured using the QUANTI-Blue™ Solution (InvivoGen) according to the manufacturer's instructions.

Assay [4] has as its system HEK-Blue IFNγ reporter cells (IFNγ-stimulated STAT1 SEAP reporter). Put plainly: HEK-Blue IFNγ SEAP reporter assay for determining selectivity. Details: IFN-γ (SEAP selectivity, IC50): scale not given here. As to conditions: 50 ng/mL human recombinant IFNγ; for IC50: Homo sapiens, HEK-Blue, read-out: IFN-γ (SEAP selectivity, IC50). On the procedure:
as §3, §4

Where only a bound is given, the exact number is not on record here.

A word on the IC50: it is the midpoint of a concentration-inhibition curve. `[2H]C([2H])([2H])NC(=O)c1nnc(NC(=O)NC)cc1Nc1cccc2c1N(C)[C@@H](C)c1nn(C)nc1-2` (single isomer, unassigned) [Compound 62]: the IC50 in assay [1] is less than 30 nM; in assay [2], less than 30 nM; in assay [3], more than 1000 nM; in assay [4] it was more than 1000 nM.

As to `[2H]C([2H])([2H])NC(=O)c1nnc(NC(=O)C2CC2)cc1Nc1nccc2c1N(C)[C@@H](C)c1nn(C)nc1-2` (single isomer, unassigned) [Compound 94], the IC50 in assay [1] was less than 30 nM; in assay [2], less than 30 nM; in assay [3], more than 1000 nM; in assay [4], 300 to 1000 nM.

Take `[2H]C([2H])([2H])NC(=O)c1nnc(NC(=O)C2CC2)cc1Nc1nccc2c1N(C)[C@H](C)c1nn(C)nc1-2` (single isomer, unassigned) [Compound 95]: the IC50 is less than 30 nM in assay [1], 30 to 300 nM in assay [2], more than 1000 nM in assay [3] and more than 1000 nM in assay [4].

Take `[2H]C([2H])([2H])NC(=O)c1nnc(NC(=O)NC)cc1Nc1nccc2c1N(C)[C@@H](C)c1nn(C)nc1-2` (single isomer, unassigned) [Compound 100]: the half-inhibitory concentration (IC50) was less than 30 nM in assay [1], less than 30 nM in assay [2], more than 1000 nM in assay [3] and more than 1000 nM in assay [4].

For the compound `[2H]C([2H])([2H])NC(=O)c1cnc(NC(=O)C2CC2)cc1Nc1cc(F)cc2c1N(C)[C@@H](C)c1nc(C)nn1-2` (single isomer, unassigned) [Compound 110], the IC50 was less than 30 nM in assay [1], 30 to 300 nM in assay [2] and more than 1000 nM in assay [3]. For the same compound, in assay [4], the “IFN-γ (SEAP selectivity, IC50)” value is reported as “C/D”.

As to `[2H]C([2H])([2H])NC(=O)c1nnc(NC(=O)C2CC2)cc1Nc1cc(F)cc2c1N(C)[C@@H](C)c1nc(C)nn1-2` (single isomer, unassigned) [Compound 111], the 50% inhibitory concentration (IC50) in assay [1] is less than 30 nM; in assay [2], 30 to 300 nM; in assay [3], more than 1000 nM; in assay [4], more than 1000 nM.

Consider `[2H]C([2H])([2H])NC(=O)c1nnc(Nc2cc(C)nc(C)n2)cc1Nc1cccc2c1N(C)Cc1nc(C)nn1-2` [Compound 15, 4-((2,5-dimethyl-4,5-dihydro-[1,2,4]triazolo[1,5-a]quinoxalin-6-yl)amino)-6-((2,6-dimethylpyrimidin-4-yl)amino)-N-(methyl-d3)pyridazine-3-carboxamide], for which the IC50 in assay [1] is less than 30 nM; in assay [2], less than 30 nM; in assay [3] it was 300 to 1000 nM; in assay [4], less than 30 nM.

For the compound `[2H]C([2H])([2H])NC(=O)c1nnc(NC(=O)NC)cc1Nc1cccc2c1N(C)Cc1nc(C)nn1-2` [Compound 19, 4-((2,5-dimethyl-4,5-dihydro-[1,2,4]triazolo[1,5-a]quinoxalin-6-yl)amino)-N-(methyl-d3)-6-(3-methylureido)pyridazine-3-carboxamide], the IC50 in assay [1] is less than 30 nM; in assay [2], 30 to 300 nM; in assay [3], more than 1000 nM; in assay [4], 300 to 1000 nM.

As to `[2H]C([2H])([2H])NC(=O)c1cnc(Nc2cc(C)nc(C)n2)cc1Nc1cccc2c1N(C)Cc1nc(C)nn1-2` [Compound 26, 4-((2,5-dimethyl-4,5-dihydro-[1,2,4]triazolo[1,5-a]quinoxalin-6-yl)amino)-6-((2,6-dimethylpyrimidin-4-yl)amino)-N-(methyl-d3)nicotinamide], the IC50 is less than 30 nM in assay [1], less than 30 nM in assay [2], 300 to 1000 nM in assay [3] and 30 to 300 nM in assay [4].

As for `[2H]C([2H])([2H])NC(=O)c1nnc(NC(=O)C2CC2)cc1Nc1cccc2c1N(C)C([2H])([2H])c1nc(C)nn1-2` [Compound 35, 6-(cyclopropanecarboxamido)-4-((2,5-dimethyl-4,5-dihydro-[1,2,4]triazolo[1,5-a]quinoxalin-6-yl-4,4-d2)amino)-N-(methyl-d3)pyridazine-3-carboxamide], the IC50 is less than 30 nM in assay [1], less than 30 nM in assay [2], more than 1000 nM in assay [3] and 30 to 300 nM in assay [4].

Consider `[2H]C([2H])([2H])NC(=O)c1cnc(NC(=O)C2CC2)cc1Nc1cccc2c1N(C)C([2H])([2H])c1nc(C)nn1-2` [Compound 36, 6-(cyclopropanecarboxamido)-4-((2,5-dimethyl-4,5-dihydro-[1,2,4]triazolo[1,5-a]quinoxalin-6-yl-4,4-d2)amino)-N-(methyl-d3)nicotinamide], for which the IC50 in assay [1] was less than 30 nM; in assay [2], less than 30 nM; in assay [3] it was more than 1000 nM; in assay [4] it was 300 to 1000 nM.

`[2H]C([2H])([2H])NC(=O)c1nnc(NC(=O)C2CC2)cc1Nc1cccc2c1N(C)C1(CC1)c1nc(C)nn1-2` [Compound 39, 6-(cyclopropanecarboxamido)-4-((2′,5′-dimethyl-5′H-spiro[cyclopropane-1,4′-[1,2,4]triazolo[1,5-a]quinoxalin]-6′-yl)amino)-N-(methyl-d3)pyridazine-3-carboxamide]: the IC50 is less than 30 nM in assay [1], less than 30 nM in assay [2], more than 1000 nM in assay [3] and 300 to 1000 nM in assay [4].

`[2H]C([2H])([2H])NC(=O)c1cnc(NC(=O)C2CC2)cc1Nc1cccc2c1N(C)C1(CC1)c1nc(C)nn1-2` [Compound 40, 6-(cyclopropanecarboxamido)-4-((2′,5′-dimethyl-5′H-spiro[cyclopropane-1,4′-[1,2,4]triazolo[1,5-a]quinoxalin]-6′-yl)amino)-N-(methyl-d3)nicotinamide]: the half-maximal inhibitory concentration (IC50) in assay [1] is less than 30 nM; in assay [2] it was less than 30 nM; in assay [3] it was more than 1000 nM; in assay [4], more than 1000 nM.

In the case of `[2H]C([2H])([2H])NC(=O)c1nnc(NC(=O)C2CC2)cc1Nc1cccc2c1N(C)[C@H](C([2H])([2H])[2H])c1nc(C)nn1-2` [Compound 44, (R)-6-(cyclopropanecarboxamido)-4-((2,5-dimethyl-4-(methyl-d3)-4,5-dihydro-[1,2,4]triazolo[1,5-a]quinoxalin-6-yl)amino)-N-(methyl-d3)pyridazine-3-carboxamide], the half-maximal inhibitory concentration (IC50) is less than 30 nM in assay [1], less than 30 nM in assay [2], more than 1000 nM in assay [3] and more than 1000 nM in assay [4].

With `[2H]C([2H])([2H])NC(=O)c1cnc(NC(=O)C2CC2)cc1Nc1cccc2c1N(C)Cc1nn(C([2H])([2H])[2H])nc1-2` [Compound 49, 6-(cyclopropanecarboxamido)-N-(methyl-d3)-4-((5-methyl-2-(methyl-d3)-4,5-dihydro-2H-[1,2,3]triazolo[4,5-c]quinolin-6-yl)amino)nicotinamide], the IC50 in assay [1] was less than 30 nM; in assay [2] it was less than 30 nM; in assay [3] it was more than 1000 nM; in assay [4] it was 30 to 300 nM.

For `[2H]C([2H])([2H])NC(=O)c1cnc(NC(=O)NC)cc1Nc1cccc2c1N(C)Cc1nn(C)nc1-2` [Compound 50, 4-((2,5-dimethyl-4,5-dihydro-2H-[1,2,3]triazolo[4,5-c]quinolin-6-yl)amino)-N-(methyl-d3)-6-(3-methylureido)nicotinamide], the IC50 in assay [1] is less than 30 nM; in assay [2] it was less than 30 nM; in assay [3], more than 1000 nM; in assay [4], more than 1000 nM.

In the case of `[2H]C([2H])([2H])NC(=O)c1nnc(NC(=O)C2CC2)cc1Nc1cccc2c1N(C)C([2H])([2H])c1nn(C)nc1-2` [Compound 53, 6-(cyclopropanecarboxamido)-4-((2,5-dimethyl-4,5-dihydro-2H-[1,2,3]triazolo[4,5-c]quinolin-6-yl-4,4-d2)amino)-N-(methyl-d3)pyridazine-3-carboxamide], the 50% inhibitory concentration (IC50) in assay [1] is less than 30 nM; in assay [2], less than 30 nM; in assay [3] it was 300 to 1000 nM; in assay [4] it was 30 to 300 nM.

On to `[2H]C([2H])([2H])NC(=O)c1nnc(NC(=O)NC)cc1Nc1cccc2c1N(C)C([2H])([2H])c1nn(C)nc1-2` [Compound 54, 4-((2,5-dimethyl-4,5-dihydro-2H-[1,2,3]triazolo[4,5-c]quinolin-6-yl-4,4-d2)amino)-N-(methyl-d3)-6-(3-methylureido)pyridazine-3-carboxamide], for which the IC50 in assay [1] was less than 30 nM; in assay [2], less than 30 nM; in assay [3], more than 1000 nM; in assay [4] it was 300 to 1000 nM.
